Source: patent US7662565B2, “Approaches to identify less harmful tobacco and tobacco products” (Vector Tobacco, Inc., priority 2004, dated 2010)
Where two headings read alike, the source gives them in different places.

Columns and labels:
A549 cells [1] = test: Clonogenic survival assay (Example 3); assay type: cell-based
Experimental: A clonogenic survival assay was used to study the ability of tobaccos and tobacco products to impact the proliferation of cells. The experiment involves four major steps: (1) inoculate cells into culture dishes and incubate for 24-48 hours; (2) upon reaching the logarithmic phase of growth, the treatment is applied; the treatment in this case is freshly prepared and diluted CS for increasing periods of time; (3) the cells are then allowed to recover for a set number of hours (up to 24), then the cells are trypsinized, replated at specific dilutions, and allowed to continue growing for 5-7 days; the number of cells used depends largely on the plating efficiency of the cell line and must be determined empirically prior to the experiment; and (4) at the conclusion of the experiment, the cells are fixed, stained, and counted. The primary measure is to count surviving colonies of 25-50 cells which is presented as the percentage of cells which survived the treatment. A graphical representation of survival versus exposure time to CS is then generated. The surviving fraction is determined by dividing the number of colonies in the dish by the number of the colonies in the control (non-treated) dish.
A549 cells were exposed to smoke as previously described (see above). Following smoke exposure the medium is aspirated and the cells rinsed refed with 37° C. BEGM and placed in a 37° C., 5% CO2 humidified incubator for two to three hours. The cells are harvested by trypsinization with trypsin-EDTA (0.25% trypsin-0.38 mg/ml EDTA, Invitrogen). Cells are centrifuged at 260×g for 8 min. Cell pellets are resuspended in 1 ml of Ham's F-12K medium, 10% FBS (complete medium) per pellet and counted. Cells are serially diluted so that the mock treated have ˜65 cells per well and smoke treated have ˜300 cells per well when seeded onto 96-well flat bottom tissue culture plates; one plate per condition. The plates are incubated for five days in a 37° C., 5% CO2 humidified incubator. The colonies of cells are fixed with 5% formaldehyde/PBS and colored with 0.8% crystal violet solution for visualization. The colonies are counted with the aid of a macroscopic dissecting microscope. The cloning efficiency results are expressed in relation to the mock exposed cells. Unless otherwise indicated, each bar in the graphs represents three replicate data points per experiment.
In yet another series of experiments, the effect of NAC on cell death caused by the VAPOR phase of smoke from different cigarettes was evaluated. A549 cells were exposed to the vapor phase of smoke for 20 min by inserting a Cambridge filter pad immediately after the cigarette in the smoking apparatus so as to filter out the particulate matter (“tar”) and leave only the vapor phase. […]

A549 cells [2] = test: γH2AX DNA damage assay, A549 cells exposed to whole smoke or vapor phase of smoke (Example 2); assay type: cell-based, human; settings: for suppression of DNA damage (γH2AX): 25 mM NAC present during exposure; for effect of NAC on DNA damage: 25 mM NAC during exposure (FIG. 10); for IC50: Homo sapiens, from graph FIG. 11, read-out: concentration of NAC that reduced DNA damage by 50%
NHBE cells = test: γH2AX DNA damage assay, NHBE cells exposed to whole smoke or vapor phase of smoke (Example 2); assay type: cell-based, human
Description: In order to compare DNA damage as a function of the cell's position in the cell cycle, γH2AX values were normalized to DNA content since histone content doubles as cells proceed from G1 to G2 phase. Thus, in order to determine any change in histone H2AX phosphorylation independent of changes in histone/DNA content or DNA ploidy, the values for S and G2M phase populations, gated according to DNA content, were multiplied by 0.75 and 0.5, respectively. In instances where “normalized” values of γH2AX are presented, these values were obtained by subtracting the mean values of each cell cycle population (or the total population) from the mean of the mock-treated population whose γH2AX values represent “scheduled” γH2AX expression. In all instances, the values presented represent the mean γH2AX fluorescence of the population; typically 3-5×10^3 cells were analyzed for each condition.
The response of NHBE cells to whole smoke from IM 16 cigarettes was more or less identical to that observed for A549 cells (FIG. 7C). The one difference between the two cell lines was that S phase cells in NHBE cultures always expressed higher “scheduled” amounts of γH2AX.
In the next series of experiments, it was determined that DNA damage caused by whole smoke can be mitigated by the presence of NAC. Using a standardized set of conditions (20 min of exposure followed by a 1 h recovery), DNA damage caused by whole smoke from IM 16 cigarettes was assayed in both A549 and NHBE cells. NAC at a concentration of 25 mM was either absent or present during exposure and absent or present during the 1 h recovery time. In this instance, the background or “scheduled” γH2AX expression observed in Mock-treated cells was subtracted from each measurement. The remaining fluorescence should be indicative of the level of DNA DSBs under each set of conditions.
The vapor phase from IM 16 CS cause only about 30% (29.7%) of the damage caused by whole smoke whereas the vapor phase of smoke from Quest 1® caused 97% less damage than whole smoke from IM 16 cigarettes.

tobacco leaf disks = test: Norflurazone resistance of tobacco leaf disks transformed with PDSM genes; settings: Agrobacterium transformation of tobacco leaf disks; various norflurazone concentrations
Experimental: Other aspects of the invention concern the discovery of several mutants of the phytoene desaturase gene that confer resistance to the herbicide norflurazone (e.g., SEQ. ID. Nos.10, 11, and 12). These herbicide resistance genes were used as selectable markers in the transformations above. Typically, the selection was accomplished by introducing the transformed plant tissue to the norflurazone (e.g., 0.005 uM-0.1 uM conc.). That is, the concentration of norflurazone that can be used to select positive transformants containing a norflurazone resistance gene, as described herein can be at least, less than, greater than, or equal to 0.005, 0.006, 0.007, 0.008, 0.009, 0.01, 0.02, 0.03, 0.04, 0.05, 0.06, 0.07, 0.08, 0.09, 0.1, 0.2, 0.3, 0.4, 0.5, 0.6, 0.7, 0.8, 0.9, or 1.0 uM. Preferably, less than or equal to 0.05 uM concentration of norflurazone is used when selecting transformants with Flue-cured tobacco and less than or equal to 0.0125 uM concentration norflurazone is used when selecting transformants with Burley tobacco. As the plantlet develops, selection was accomplished by differentiating the green shoots (positive transformants) from the yellow or white shoots (negative transformants). Once selection was made, the herbicide was removed and the plantlet was allowed to develop in the greenhouse.
The norflurazone resistant phytoene desaturase mutants (PDSM-1, PDSM-2, and PDSM-3) were generated by site-directed mutagenesis of particular regions of the gene believed to be involved in binding of the herbicide. Constructs carrying the various PDSM genes were then transferred to tobacco leaf disks by conventional Agrobacterium transformation and the resistance to norflurazone was analyzed at various concentrations. After several iterations, the mutants described as SEQ. ID. […] Accordingly, aspects of the invention concern the PDSM genes described herein, their use in plants as selectable markers to identify plant cells that contain a transformed gene, whether in tissue culture or in the field, and methods of identifying new PDSM genes that confer norflurazone resistance.

CC(=O)N[C@@H](CS)C(=O)O [NAC, N-acetyl-L-cysteine]
protection of cell viability by NAC (A549 cells [1]; 20 min IM16 smoke, various concentrations of NAC (FIG. 16)): protected the viability of the cells in a dose-dependent manner | protection of cell viability by NAC (A549 cells [1]; 20 min Omni or IM16 smoke, 25 mM NAC): partially protected | protection of cell viability by NAC (A549 cells [1]; 20 min Quest 3 smoke, 25 mM NAC): completely protected | protection of cell viability by NAC (A549 cells [1]; all vapor phase exposures, 25 mM NAC): protected the cells against viability loss | effect of NAC on vapor phase damage (A549 cells [2]; A549, each cell cycle phase, vapor phase from Quest 1 and Quest 3): reduced damage to background levels | suppression of DNA damage (γH2AX) (A549 cells [2]; A549, entire population, IM 16 whole smoke 20 min, 1 h recovery): greater than 80% | suppression of γH2AX (A549 cells [2]; A549, entire population, IM 16 whole smoke, 25 mM NAC during exposure and during 1 h recovery): 90% | mitigation of DNA damage (A549 cells [2]; A549, IM 16 whole smoke, 25 mM NAC applied to the media following exposure only): did nothing to mitigate the DNA damage | effect of NAC on DNA damage (A549 cells [2]; A549, smoke from IM 16): dramatically reduced the effects of smoke | effect of NAC on DNA damage (A549 cells [2]; A549, smoke from Omni): reduced the damage to near background levels | effect of NAC on DNA damage (A549 cells [2]; A549, smoke from Quest 3): reduced to background levels | reduction of γH2AX by NAC (A549 cells [2]; A549, vapor phase of smoke from IM 16, NAC during exposure): 93.2% | reduction of γH2AX by NAC (A549 cells [2]; A549, vapor phase of smoke from Quest 1, NAC during exposure): 98.9% | reduction of γH2AX by NAC (A549 cells [2]; A549, vapor phase of smoke from Quest 3, NAC during exposure): 100% | reduction of γH2AX by NAC (A549 cells [2]; A549, whole smoke from IM 16, 25 mM NAC during exposure): 89.1% | suppression of DNA damage (γH2AX) (A549 cells [2]; A549 G1 cells, IM 16 whole smoke): 91% | reduction of damage by NAC (A549 cells [2]; A549 G1 phase, vapor phase of smoke from IM 16): 98.5% | suppression of DNA damage (γH2AX) (A549 cells [2]; A549 G2M cells, IM 16 whole smoke): 88% | reduction of damage by NAC (A549 cells [2]; A549 G2M phase, vapor phase of smoke from IM 16): 92.2% | suppression of DNA damage (γH2AX) (A549 cells [2]; A549 S phase cells, IM 16 whole smoke): 82% | reduction of damage by NAC (A549 cells [2]; A549 S phase, vapor phase of smoke from IM 16): 89.0% | concentration dependence of NAC protection (A549 cells [2]; G1 and G2M A549 cells, IM 16 whole smoke 20 min, 1 h recovery): began to decrease when as little as 1 mM NAC was present | IC50 (A549 cells [2]; A549, G1 phase A549 cells, IM 16 whole smoke): ~4.5 mM | IC50 (A549 cells [2]; A549, G2M phase A549 cells, IM 16 whole smoke): ~7.5 mM | IC50 (A549 cells [2]; A549, S phase A549 cells, IM 16 whole smoke): ~2.6 mM | concentration dependence of NAC protection (A549 cells [2]; S phase A549 cells, IM 16 whole smoke 20 min, 1 h recovery): unaffected by the presence of NAC up to a concentration of 5 mM | decrease of DNA damage by NAC (NHBE cells; NHBE G1 cells, IM 16 whole smoke, 25 mM NAC present during exposure): ~69% | decrease of DNA damage by NAC (NHBE cells; NHBE G2M cells, IM 16 whole smoke, 25 mM NAC present during exposure): about 65% | protection by NAC (NHBE cells; NHBE S phase cells, IM 16 whole smoke, 25 mM NAC present during exposure): afforded no protection | protection by NAC (NHBE cells; NHBE, IM 16 whole smoke, 25 mM NAC during exposure and recovery): small degree of additional protection | effect of NAC on level of DNA damage (NHBE cells; NHBE, IM 16 whole smoke, 25 mM NAC only during recovery): little effect on the level of DNA damage | effect of NAC on vapor phase DNA damage (NHBE cells; NHBE, vapor phase of IM 16, Quest 1 or Quest 3): abolished virtually all DNA damage | effect of NAC on vapor phase damage (NHBE cells; NHBE, vapor phase of smoke from IM 16 (FIG. 13)): to background levels or below | effect of NAC on vapor phase damage (NHBE cells; NHBE, vapor phase of smoke from Quest cigarettes): inhibited | reduction of γH2AX by NAC (NHBE cells; NHBE, whole smoke from IM 16, NAC during exposure): 77.9%

PDSM-2: Arabidopsis phytoene desaturase mutant gene, G to C at position 863 (Arginine to Proline at residue 288)
resistance to norflurazone (tobacco leaf disks): confer resistance to norflurazone

PDSM-1: Arabidopsis phytoene desaturase mutant gene, T to G at position 1478 (Valine to Glycine at residue 493)
resistance to norflurazone (tobacco leaf disks): confer resistance to norflurazone

PDSM-3: Arabidopsis phytoene desaturase mutant gene, T to C at position 1226 (Leucine to Proline at residue 409)
resistance to norflurazone (tobacco leaf disks): confer resistance to norflurazone
